Experimental data from patent publication US20110071124A1, “Compounds that Inhibit Production of sAPPB and AB and Uses Thereof” (The Trustees of Columbia University in the City of New York, priority 2008, published 2011).

Test system: sAPPβ (BACE1 cleavage of SEAP-APPwt) in SY5Y-BACEGFP-SEAPAPPwt cells
Experiment: cell-based BACE1 assay (sAPPβ modified ELISA)
Settings: 10 μM, positive control, 384-well LDDN screen, on average
Procedure: FIG. 1. An sAPPβ assay utilized to identify inhibitors of BACE1. The assay utilizes SY5Y cells stably overexpressing BACE-GFP and SEAP-APPwt. Cells are incubated with a candidate compound for 6 hours prior to harvesting media. BACE1-mediated cleavage of APP results in the release of sAPPβ into the media. α-secretase, a competing enzyme that is non-amyloidogenic, also cleaves APP to release […]. Using an sAPPβ-specific antibody (sβwt), SEAP-sAPPβ is specifically captured in a modified ELISA assay. Detection is achieved by addition of the fluorescent alkaline phosphatase substrate, 4-methylumbelliferyl phosphate (4-MUP).
(§1) FIG. 13. […] Compounds were tested in SY5Y-BACEGFP-SEAPAPPwt cells using the cell-based BACE1 assay. Select compounds were also investigated for Aβ-lowering effect using a commercial Aβ ELISA kit (BioSource). All compounds were tested at 8 concentrations (30, 10, 3, 1, 0.3, 0.1, 0.03, and 0.01 μM), and data points were analyzed with Origin software and fitted using a logistic model for IC50 determination.
As described in the Examples below, and depicted in FIG. 1, an sAPPβ ELISA assay may comprise cells, for example, SY5Y cells, transfected with a BACE1 reporter construct, such as a GFP-tagged BACE1 (BACE-GFP), and a wild type APP reporter construct, such as a secreted alkaline phosphatase (SEAP)-tagged wild type APP (SEAP-APPwt). BACE1 cleavage of the reporter-tagged APP (e.g. SEAP-APPwt) may result in secretion into the media of SEAP-tagged sAPPβ, which may be collected and specifically captured using an sAPPβ cleavage site-specific antibody (e.g. stβwt). Following washing, a substrate may be used, for example, the fluorescent alkaline phosphatase substrate 4-methylumbelliferyl phosphate (4-MUP), to detect the captured SEAP-sAPPβ.
A cell-based modified ELISA assay for measuring sAPPβ, the secreted ectodomain of β-amyloid precursor protein (APP) following β-secretase (BACE1) cleavage, was used to identify a class of compounds that interfered with the first step of sAPPβ generation. This assay has been described in International Application PCT/US2007/015938 (Published as International Publication No. WO 08/008463), which is herein incorporated in its entirety for all purposes.
The SY5Y-BACEGFP-SEAPAPPwt cell based assay was developed to discover novel small molecule modulators of BACE1 activity. SY5Y cells were stably transfected with GFP-tagged BACE1 (BACE-GFP) and secreted alkaline phosphatase (SEAP)-tagged wildtype APP (SEAP-APPwt). BACE1 cleavage of SEAP-APPwt results in secretion into the media of SEAP-tagged sAPPβ, which is collected and specifically captured using an sAPP0 cleavage site-specific antibody (sβwt). After washing, the fluorescent alkaline phosphatase substrate 4-methylumbelliferyl phosphate (4-MUP) is used to detect the captured SEAP-sAPPβ (FIG. 1).
The 15 LDDN compounds selected based on their 3-point dose-response profile were tested at 12 concentrations (ranging from 0.1 nM to 30 μM) in the cell-based BACE1 assay. The assay was conducted in 96-well format to maximize the Z′ factor. Compounds were characterized in duplicate cell plates, each containing 12 doses of compound in triplicate. Cell viability was measured at 6 and 24 hours using Promega's Cell Titer-Glo kit according to the manufacturer's protocol. The dose-response curves for sAPPβ reduction were plotted using Origin software and fitted using a logistic model for IC50 determination.
(§2) 27 structural analogs of LDN-0057228 were synthesized and tested using the cell-based BACE1 assay in SY5Y-BACEGFP-SEAPAPPwt cells (FIG. 13). 4 analogs, in addition to the parent compound, were also assessed for Aβ40 lowering activity using a commercial Aβ kit (BioSource). Because LDN-0057228 resembles CNS monoamine transporter inhibitors, this analog series was given the designation “CNS.” LDN-0057228 gave an unexpectedly low potency (IC50˜20 μM for both sAPPβ and Aβ40 reduction) compared to the ˜7 μM potency obtained using the same compound in FIG. 8.

Compound	suppression of sAPPβ generation [%]
BACE inhibitor IV [reference compound]	> 95

Same assay, conditions: SAR study, 8 concentrations (30-0.01 μM), SY5Y-BACEGFP-SEAPAPPwt cells

Compound	IC50(sAPPβ)
NC(=O)[C@H]1CCCN1CCOC(c1ccc(F)cc1)c1ccc(F)cc1 [CNS-11]	inactive
NC(=O)[C@@H]1CCCCN1CCOC(c1ccc(F)cc1)c1ccc(F)cc1 [CNS-15]	inactive
NC(=O)[C@@H]1CCCN1CCOC(c1ccc(F)cc1)c1ccc(F)cc1 [CNS-16]	inactive
NC(=O)[C@@H]1CCN1CCOC(c1ccc(F)cc1)c1ccc(F)cc1 [CNS-17]	inactive
O=C(CCc1ccccc1)NC[C@@H]1CCN1CCOC(c1ccc(F)cc1)c1ccc(F)cc1 [CNS-19]	inactive
Fc1ccc(C(OCCN2CC[C@H]2CNCCCc2ccccc2)c2ccc(F)cc2)cc1 [CNS-20]	inactive
O=C(CCc1ccccc1)NCCNCCOC(c1ccc(F)cc1)c1ccc(F)cc1 [CNS-21]	inactive
Fc1ccc(C(OCCNCCNCCCc2ccccc2)c2ccc(F)cc2)cc1 [CNS-22]	inactive
O=C(CCc1ccccc1)NCCN(CCOC(c1ccc(F)cc1)c1ccc(F)cc1)CCOC(c1ccc(F)cc1)c1ccc(F)cc1 [CNS-23]	inactive
NC(=O)[C@@H]1CCCN1C(c1ccc(F)cc1)c1ccc(F)cc1 [CNS-24]	inactive

Same assay, conditions: SAR study, 8 concentrations (30-0.01 μM), SY5Y-BACEGFP-SEAPAPPwt cells; read-out: IC50(sAPPβ)

Compound	IC50 [µM]
Fc1ccc(C(OCCN2CCC[C@H]2CNCCCc2ccccc2)c2ccc(F)cc2)cc1 [CNS-1]	10.5
CNC[C@@H]1CCCN1CCOC(c1ccc(F)cc1)c1ccc(F)cc1 [CNS-3]	11.5
COC(=O)NC[C@@H]1CCCN1CCOC(c1ccc(F)cc1)c1ccc(F)cc1 [CNS-4]	23.3
CC(=O)NC[C@@H]1CCCN1CCOC(c1ccc(F)cc1)c1ccc(F)cc1 [CNS-5]	20.8
NC[C@@H]1CCCN1CCOC(c1ccc(F)cc1)c1ccc(F)cc1 [CNS-6]	27.9
Fc1ccc(C(OCCN2CCC[C@@H]2CNCCCc2ccccc2)c2ccc(F)cc2)cc1 [CNS-8]	5.7
O=C(CCc1ccccc1)NC[C@H]1CCCN1CCOC(c1ccc(F)cc1)c1ccc(F)cc1 [CNS-9]	20.4
NC[C@H]1CCCN1CCOC(c1ccc(F)cc1)c1ccc(F)cc1 [CNS-10]	38.3
NC[C@@H]1CCCCN1CCOC(c1ccc(F)cc1)c1ccc(F)cc1 [CNS-12]	> 50
Fc1ccc(C(OCCN2CCCC[C@H]2CNCCCc2ccccc2)c2ccc(F)cc2)cc1 [CNS-13]	9
O=C(CCc1ccccc1)NC[C@@H]1CCCCN1CCOC(c1ccc(F)cc1)c1ccc(F)cc1 [CNS-14]	14
NC[C@@H]1CCN1CCOC(c1ccc(F)cc1)c1ccc(F)cc1 [CNS-18]	> 50
NC[C@@H]1CCCN1C(c1ccc(F)cc1)c1ccc(F)cc1 [CNS-25]	31.4
O=C(CCc1ccccc1)NC[C@@H]1CCCN1C(c1ccc(F)cc1)c1ccc(F)cc1 [CNS-26]	32.1
Fc1ccc(C(c2ccc(F)cc2)N2CCC[C@H]2CNCCCc2ccccc2)cc1 [CNS-27]	10.2
Fc1ccc(C(OCCN2CCN(CCCc3ccccc3)CC2)c2ccc(F)cc2)cc1 [GBR 12909, reference compound]	34.6

Test system: Aβ40 in Lenti-APPsw infected primary cortical neurons
Experiment: Aβ40 ELISA in Lenti-APPsw infected primary cortical neurons
Type: cell-based, mouse
Settings: 10 μM, 24 hours
Procedure: FIG. 15A-D. LDN-0057228 reduces Aβ40 and sAPPβ in primary neurons. DIV-14 primary cortical neurons from wild-type mice were incubated for 24 hours with primary culture media containing lentivirus harboring APPsw. After infection, neurons were incubated for 48 hours with 1:1 fresh to conditioned media to allow for APP expression. Neurons were then treated with LDN-0057228 at 20 μM for 24 hours in triplicate. A) Media was collected for Aβ40 ELISA. Raw Aβ40 values were normalized to APP to control for variations in lentiviral infection efficiency. B) Cell lysates were probed with 6E10 antibody to visualize the transduced full-length APP. C) sAPPβ from neuron culture media was immunoprecipitated with sβsw antibody and probed with LN27. D) Quantification of sAPPβ, normalized to APP. Data in A) and […]) represent mean+s.d. of 3 wells. Bands from B) and C) were quantified using ImageJ software.
FIG. 16A-B. CNS-2 and LDN-0057228 reduce Aβ40 in primary neurons. DIV-14 primary cortical neurons from wild-type mice were incubated for 24 hours with primary culture media containing lentivirus harboring APPsw. After infection, neurons were incubated for 48 hours with 1:1 fresh to conditioned media to allow for APP expression. Neurons were then treated for 24 hours with the indicated compound and concentration. A) Media was collected for Aβ40 ELISA. Raw Aβ40 values were normalized to APP to control for variations in lentiviral infection efficiency. B) Cell lysates were probed with 6E10 antibody to visualize the transduced full-length APP.
Lenti-APPsw infected primary cortical neurons were selected for the initial round of physiological experiments due to the relatively large batches of wild-type primary cortical neurons that were routinely harvested in the lab, the ease of lentiviral packaging. Primary cortical neurons were harvested from wild-type P0 pups using established protocols.
The Lenti-APPsw vector was co-transfected into HEK293 T cells with ViraPower packaging mix (Invitrogen) to generate the lentivirus. Lentiviral-mediated transduction of APPsw in primary neurons was performed by adding neuron primary culture media containing the lentiviral particles to wild-type DIV-14 primary neurons (FIG. 14). After 24 hours, neurons were incubated with media for 72 hours prior to collecting for Aβ40 measurement. Two batches of virus (LV-1 and LV-2) were tested, showing that there is batch-to-batch variation in the viral titer.
Using this experimental paradigm, LDN-0057228 was tested at 20 μM concentration to confirm the sAPPβ- and Aβ-lowering activity of the compound (FIG. 15). The protocol was modified slightly to allow for 24-hour compound treatment. […]

Compound	reduction in Aβ40 [%]
CS(=O)(=O)c1nnnn1-c1ccccc1Cl [LDN-0069630]	15

Same assay, conditions: 15 μM, 24 hours

Compound	reduction in Aβ40 [%]
CS(=O)(=O)c1nnnn1-c1ccccc1Cl [LDN-0069630]	40

Test system: Aβ40 in SY5Y-BACEGFP-SEAPAPPwt cells
Experiment: Aβ40 ELISA (BioSource) in SY5Y-BACEGFP-SEAPAPPwt cells
Type: cell-based
Settings: 4 concentrations (30, 10, 3, 0.3 μM), 6 hours
Procedure: FIG. 11. 5 LDDN compounds reduce Aβ40 in SYSY-BACEGFP-SEAPAPPwt cells. sAPPβ and 24-hour cell viability was performed as described in Chapter 4.1. Aβ40 ELISA was performed using the Aβ40 ELISA kit (BioSource) according to the manufacturer's protocol. Cell culture media was collected after 6 hours of treatment with 4 concentrations (30, 10, 3, 0.3 μM) of compound and diluted 3:10 prior to loading onto the Aβ ELISA plate. The data points for sAPPβ and Aβ were roughly superimposed. Data points represent mean±s.d. of 3 determinations.
as §1
In other non-limiting embodiments, the effective amount of at least one compound of Formulas I-VII, and/or a compound depicted in FIG. 19, may be correlated with the compound's ability to reduce the level of Aβ40 in an in vitro assay that measures the level of Aβ40 produced in a cell line, for example, an SY5Y-BACEGFP-SEAPAPPwt cell line. In one non-limiting example, the level of Aβ40 expressed by the cell line may be measured through the use of an Aβ40 Elisa kit (Bio Source). In one embodiment, the assay comprises incubating the Aβ40 expressing cells with a compound of Formulas I-VII, and/or a compound depicted in FIG. 19, followed by assaying the concentration of Aβ40 in the cell media. In such an assay, a greater reduction of Aβ40 concentration in the cell media following incubation with a compound compared to a control cell line not contacted with the compound is correlative with the compound's therapeutic efficacy.
The 15 LDDN compounds were tested in SY5Y-BACEGFP-SEAPAPPwt cells for their ability to reduce Aβ40 using a commercial Aβ40 ELISA kit (BioSource). SY5Y-BACEGFP-SEAPAPPwt cells were grown to 100% confluence and incubated with 4 concentrations of each compound (30, 10, 3, 0.3 μM). Cell culture media was collected after 6 hours of compound incubation and diluted 3:10 in sample diluent supplied in the Aβ40 ELISA kit. Aβ ELISA was performed according to the manufacturer's protocol. […] LDN-0057228 and LDN-0069630 are small molecules with ample chemical space for modification, and are thus considered good candidates for medicinal chemistry.
as §2

Compound	dose-dependent decrease in Aβ40
CS(=O)(=O)c1nnnn1-c1ccccc1Cl [LDN-0069630]	caused a dose-dependent decrease in Aβ40

Same assay, conditions: SAR study, 8 concentrations (30-0.01 μM), SY5Y-BACEGFP-SEAPAPPwt cells

Compound	IC50 [µM]
CNC[C@@H]1CCCN1CCOC(c1ccc(F)cc1)c1ccc(F)cc1 [CNS-3]	11.5
Fc1ccc(C(OCCN2CCN(CCCc3ccccc3)CC2)c2ccc(F)cc2)cc1 [GBR 12909, reference compound]	14.5
